Measurements from ChEMBL document CHEMBL1148920, “Ingenamine G and cyclostellettamines G-I, K, and L from the new Brazilian species of marine sponge Pachychalina sp” (2004).

Columns and labels:
Format in all cases: functional
MCF7 = experiment: Cytotoxicity against human MCF7 cells
B16 = experiment: Cytotoxicity against mouse B16 cells
Staphylococcus aureus = experiment: Antibacterial activity against Staphylococcus aureus ATCC 25923
[1] = test system: Mycobacterium tuberculosis; experiment: Antimycobacterial activity against Mycobacterium tuberculosis H37Rv
Escherichia coli = experiment: Antibacterial activity against Escherichia coli ATCC 25922
HCT-8 = experiment: Cytotoxicity against human HCT8 cells

In the case of `OC1/C=C\C=C/CCN2CC3C=C4CCCCCCCCCC/C=C\CCN5CCC3C(C1)(C5)C42` (stereo unspecified) [INGENAMINE G], the Activity (MCF7) is reported as 11.3 µg/mL, the Activity (B16) is reported as 9.8 µg/mL and the Activity (Staphylococcus aureus) is reported as 105 µg/mL. For the same compound, the Activity [1] was 8 µg/mL, the Activity (Escherichia coli) was 75 µg/mL and the Activity (HCT-8) was 8.6 µg/mL.
